This is an account of results in US8222285B2, “1,3-dihydroxy substituted phenylamide glucokinase activators” (Bristol-Myers Squibb Company, priority 2007, dated 2012).

Each structure is given as a SMILES string.

The test system of one test is male DIO (diet-induced obese) C57BL/6J mice. As to the kind of experiment: Oral glucose tolerance test (OGTT) in DIO mice. The test is classed as in vivo. The conditions noted are these: 30 mg/kg oral, 60 min before 2 g/kg oral glucose; ΔAUC 0-120 min; DIO C57BL/6J mice. Here is the method: In Vivo Studies: Oral Glucose Tolerance Test (OGTT)
Oral glucose tolerance tests were carried out on male DIO (diet-induced obese) C57BL/6J mice fed a high fat diet (60% kcal from fat) for 26 weeks prior to experimentation. Mice were fasted overnight before use for experiments. A test compound or vehicle (10% dimethyl acetamide+10% ethanol+10% Cremophore+70% water) was given orally 60 min before oral administration of a glucose solution at a dose of 2 g/kg body weight (oral glucose tolerance test; OGTT). Blood glucose levels were measured from tail-bled samples taken at different time points before and after administration of glucose (time course of 2 hours). A time curve of the blood glucose was generated and the change from baseline area-under-the curve (ΔAUC) from 0-120 min was calculated (the time glucose administration being time zero).
Regarding `COC[C@H](C)Oc1cc(Oc2ccc(S(C)(=O)=O)cc2)cc(C(=O)Nc2ncc(Oc3cccc(C(=O)O)c3)s2)c1` [Example 4], the “Reduction in Glucose AUC at 30 mg/kg dose” value is 37%.

A further test deals with T1, human glucokinase (GK) (Homo sapiens, UniProt P35557).
T1 construct: Full-length human hepatic GK (untagged) was expressed in BL21 STAR (DE3)pLysS cells; made in house; host or cells: E. coli BL21 STAR (DE3)pLysS
T1 sequence (P35557 1-466 isoform P35557-2): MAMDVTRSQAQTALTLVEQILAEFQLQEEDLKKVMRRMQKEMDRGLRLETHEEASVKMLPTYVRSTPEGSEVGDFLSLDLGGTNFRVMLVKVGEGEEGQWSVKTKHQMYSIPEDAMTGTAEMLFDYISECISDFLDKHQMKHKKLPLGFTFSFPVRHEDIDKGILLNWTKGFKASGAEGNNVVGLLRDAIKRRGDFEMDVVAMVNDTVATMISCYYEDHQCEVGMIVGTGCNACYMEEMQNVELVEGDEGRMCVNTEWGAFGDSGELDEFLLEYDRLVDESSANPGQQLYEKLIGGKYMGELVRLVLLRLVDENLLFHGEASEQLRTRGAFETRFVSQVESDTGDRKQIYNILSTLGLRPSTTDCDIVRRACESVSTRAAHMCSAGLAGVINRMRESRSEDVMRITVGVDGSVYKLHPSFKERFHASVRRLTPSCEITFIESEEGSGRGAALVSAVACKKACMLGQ
As to the kind of experiment: Glucokinase tandem enzymatic assay. The test is classed as biochemical. Conditions: 12 mM glucose; expressed as % of basal activation; EC50 could not be calculated; read-out: Maximal activation (%) Human Glucokinase @ 12 mM Glucose. Here is the method: Glucokinase Tandem Enzymatic Assay
Enzymatic activity of human glucokinase (GK) was measured by incubating GK, ATP, and glucose for discrete time periods followed by quenching with EDTA (ethylenediamine tetra-acetic acid). Relative amounts of product glucose-6-phosphate (G6P) were measured by then running a detection assay using G6P dehydrogenase and measuring the conversion of ThioNAD (thio-nicotinamide adenine dinucleotide) to ThioNADH (thio-dihydronicotinamide adenine dinucleotide) at a wavelength of 405 nm. This ‘uncoupled’ enzymatic reaction is denoted as the GK ‘tandem’ assay. Activation of GK by compounds can be assessed using this assay. The GK tandem assay protocol described below was followed using a range of activator compound concentrations from 0 to 100 μM at 5 and 12 mM of glucose. Human full-length glucokinase (GK, 15 nM) was incubated with 5 or 12 mM glucose in a 384 well black microtiter plate with a clear bottom. To initiate the GK reaction, magnesium-ATP (3 mM final concentration) was added to GK in buffer (final buffer conditions of 25 mM HEPES buffer, pH 7.1, containing 1 mM dithiothreitol and 5% DMSO). The total reaction volume was 20 μL. The reaction was allowed to proceed for ten minutes and was then quenched with 5 μL EDTA; 45 mM final). The components of the detection reaction, ThioNAD and G6PDH (glucose-6-phosphate dehydrogenase) (final concentrations of 650 μM and 3.33 Units, respectively), were then added together in a volume of 25 μL, (to give a total volume of 50 μL). Absorbance measurements were made at 405 nm on a Spectramax Plus 384 absorbance plate reader (Molecular Devices). Absorbance was read, background glucose-6-phosphate levels were subtracted, after which activation was calculated as a percentage of control activity. Control activity was determined using GK in the presence of vehicle (DMSO), with background glucose-6-phosphate subtracted. Background glucose-6-phosphate was determined by pre-quenching GK with EDTA prior to reaction initiation with ATP.
Expression and Purification of Human GK
Full-length human hepatic GK (untagged) was expressed in BL21 STAR (DE3)pLysS cells (Invitrogen) at 25° C. as described by Mookhtiar et al. (1). The protein was purified essentially as described by Lange (2) with a slight modification. Briefly, cell pellets were lysed via three rounds of freezing and thawing, centrifuged at 15000 g for clarification, and precipitated with 40-65% (NH4)2SO4. The resulting pellet was resuspended in buffer, dialyzed, and applied directly to a Q-Sepharose (Sigma) column followed by elution with a linear 100-600 mM KCl gradient. GK containing fractions were pooled, dialyzed overnight vs. 25 mM Hepes pH 7.2/1 mM MgCl2/1 mM EDTA/0.1 M KCl/1 mM DTT, then dialyzed again with same buffer with 10% glycerol added.
Take `CC(C)Oc1cc(Oc2ccc(C(=O)N3CCC3)nc2)cc(C(=O)Nc2ncc(Oc3cccc(C(=O)O)c3)s2)c1` [Example 46]: the Emax is 124%.

On to `COC[C@H](C)Oc1cc(O[C@@H](C)Cc2ccccc2)cc(C(=O)Nc2ncc(Oc3cccc(C(=O)O)c3)s2)c1` [Example 32], for which the Emax is 118%.

The same test, now with this note: 12 mM glucose; full-length human GK 15 nM.
With `COC[C@H](C)Oc1cc(Oc2ccc(S(C)(=O)=O)cc2)cc(C(=O)Nc2ncc(Oc3cccc(C(=O)O)c3)s2)c1` [Example 4], the EC50 was 47 nM.

In turn, `COC[C@H](C)Oc1cc(Oc2ccc(S(C)(=O)=O)cc2)cc(C(=O)Nc2ncc(Oc3cccc(C(=O)N4CC(O)C4)c3)s2)c1` [Example 34] had a concentration giving a half-maximal response (EC50) of 16 nM.

Compound `CS(=O)(=O)c1ccc(Oc2cc(Oc3ccnc(Cl)c3)cc(C(=O)Nc3ncc(Oc4cccc(C(=O)O)c4)s3)c2)cc1` [Example 42] showed a 50% effective concentration (EC50) of 170 nM.

`COC[C@H](C)Oc1cc(Oc2ccc(S(C)(=O)=O)cc2)cc(C(=O)Nc2ncc(Oc3cccc(C(N)=O)c3)s2)c1` [Example 3]: the 50% effective concentration (EC50) was 13 nM.

Regarding `CC(C)Oc1cc(OC(C)C)cc(C(=O)Nc2ncc(Oc3cccc(C(=O)O)c3)s2)c1` [Example 11], the EC50 turned out to be 171 nM.

Take `COC[C@H](C)Oc1cc(Oc2ccc(S(C)(=O)=O)cc2)cc(C(=O)Nc2ncc(Oc3cccc(C(=O)N4CCC4)c3)s2)c1` [Example 33]: the response was half-maximal at 6 nM (EC50).

`CC(C)Oc1cc(Oc2ccc(S(C)(=O)=O)nc2)cc(C(=O)Nc2ncc(Oc3cccc(C(=O)O)c3)s2)c1` [Example 45] had a concentration giving a half-maximal response (EC50) of 34 nM.

Consider `CC(C)Oc1cc(OC(C)C)cc(C(=O)Nc2ncc(Oc3ccc(F)nc3)s2)c1` [Example 17], for which the EC50 was found to be 179 nM.

Still in this test, the particulars now being: read-out: Maximal activation (%) Human Glucokinase @ 12 mM Glucose.
Take `CNC(=O)Oc1cccc(Oc2cnc(NC(=O)c3cc(Oc4ccc(S(C)(=O)=O)cc4)cc(O[C@@H](C)COC)c3)s2)c1` [Example 38]: the Emax worked out at 144%.
